According to article PMC7884711, “Identification of efficient prokaryotic cell-penetrating peptides with applications in bacterial biotechnology” (Communications Biology, 2021):
Like-named read-outs stand apart in the source and are kept apart here. Where no end group is shown, it is not given here.

Columns and labels:
[1] = tested on: wild-type and tetA plasmid-harboring E. coli; test: NiCl2 susceptibility, colony counts on LB agar; assay type: cell-based, Escherichia coli; conditions: for Number of colonies, Plasmid-harboring cells: E. coli with tetA plasmid; for Number of colonies, Plasmid-harboring cells / Number of colonies, Wild-type cells: LB agar, 37 °C 24 h; for Number of colonies, Wild-type cells: E. coli
Description: Additionally, for the counterselection of plasmid-removed cells, we inserted the tetracycline resistance gene (tetA) into the plasmid to be removed. With the plasmid, the cells can survive in tetracycline media but not in Ni^2+ media. Conversely, without the plasmid, the cells cannot survive in tetracycline media but can survive in Ni^2+ media. The tetA gene induces host cells to accumulate twice as much Ni^2+ as normal cells, so tetA-containing cells are more susceptible to NiCl2 toxicity than normal cells. To determine a suitable Ni^2+ concentration for the selection of plasmid-removed cells, wild-type E. coli cells and tetracycline-resistant cells harboring the tetA gene in the plasmid were grown on Luria–Bertani (LB) agar plates containing 1–4 mM NiCl2. As shown in Supplementary Table 1, after incubation at 37 °C for 24 h, wild-type E. coli cells were capable of growing on LB agar plates containing up to 2.2 mM NiCl2. […] Therefore, we chose 2.0 mM NiCl2 as the selection concentration (Supplementary Table 1).
(§1) To investigate the susceptibility of tetA-harboring E. coli and tetA-harboring Methylomonas sp. DH-1 to NiCl2, wild-type cells and the cells containing the tetA gene in the plasmid (E. coli) or in the genome (Methylomonas sp. DH-1) were incubated in an LB (E. coli) or NMS (Methylomonas sp. DH-1) agar plate with different concentrations of NiCl2 (0.5–8 mM). The optimal NiCl2 concentrations that were determined to counter select tetA-removed cells were 2 mM and 4 mM for E. coli and Methylomonas sp. DH-1, respectively.

[2] = tested on: wild-type and tetA-harboring Methylomonas sp. DH-1; test: NiCl2 susceptibility, colony counts on NMS agar; assay type: cell-based; conditions: for Number of colonies, Wild-type cells: Methylomonas sp. DH-1, NMS agar; for Number of colonies, tetA-harboring cells: Methylomonas sp. DH-1 with genomic tetA, NMS agar
Description: as §1

[3] = tested on: E. coli DH5α cells; test: Inhibition of bacterial cell growth by CPPs (Max OD600 relative to control); assay type: cell-based, Escherichia coli; conditions: for Max OD (%) (Figure 3f): E. coli DH5α diluted 1/1000 in LB, 5 μg TAMRA-CPP (0.1 μg/μL), OD600 monitored 18 h, max OD of treated cells / max OD of control cells; for Growth rate (%): E. coli growth with CPP, relative to control; for Max OD (%): library CPPs, E. coli growth to stationary phase, relative to non-CPP-treated control, mean of n = 3
Description: E. coli DH5α cells were grown until OD600 = 1 at 37 °C with shaking at 200 rpm. […] Then, cell growth (OD600) was monitored for 18 h by using the Synergy^TM H1 hybrid multi-mode microplate reader (BioTek, Vermont, USA). As a control, we used E. coli cells that were not treated with CPPs.

[4] = tested on: E. coli DH5α cells; test: Penetration efficiency of TAMRA-labeled CPPs, electroporation-based method, flow cytometry; assay type: cell-based, Escherichia coli; conditions: for Penetration efficiency (TAMRA fluorescence in E. coli): library CPPs, electroporation, Tris buffer pH 7.5, 1 h, mean of n = 3–5; for Cell penetration efficiency (TAMRA fluorescence), Electrooration - Tris buffer / Cell penetration efficiency (TAMRA fluorescence), Electrooration - DW: electrocompetent E. coli DH5α, 5 μg TAMRA-CPP, electroporation 1.8 kV; for Cell penetration efficiency (TAMRA fluorescence), Electrooration - Tris buffer: 20 mM Tris-HCl pH 7.5, 1 h; for Cell penetration efficiency (TAMRA fluorescence), Electrooration - DW: distilled water, 1 h
Description: (§2) (Fig. 2a). […] First, we prepared electrocompetent and chemically competent cells.

[5] = tested on: E. coli DH5α cells; test: Penetration efficiency of TAMRA-labeled CPPs, chemical (CaCl2) treatment method, flow cytometry; assay type: cell-based, Escherichia coli; conditions: for Cell penetration efficiency (TAMRA fluorescence), Chemical (CaCl2) method - Tris buffer / Cell penetration efficiency (TAMRA fluorescence), Chemical (CaCl2) method - DW: 50 mM CaCl2-treated E. coli DH5α, 5 μg TAMRA-CPP; for Cell penetration efficiency (TAMRA fluorescence), Chemical (CaCl2) method - Tris buffer: 20 mM Tris-Cl pH 7.5, 1 h; for Cell penetration efficiency (TAMRA fluorescence), Chemical (CaCl2) method - DW: 5 × 10^7 cells/50 μL, distilled water, 1 h
Description: as §2

[6] = class (Cytotoxic / Safe), cutoff of 50%

[Cl][Ni][Cl] [NiCl2]
Number of colonies, Plasmid-harboring cells ([1]; NiCl2 1.8 mM): 10.67 ± 2.27
Number of colonies, Plasmid-harboring cells ([1]; NiCl2 1.9 mM): 4 ± 1.15
Number of colonies, Plasmid-harboring cells ([1]; NiCl2 2 mM): 0.34 ± 0.19
Number of colonies, Plasmid-harboring cells ([1]; NiCl2 2.1 mM): 0
Number of colonies, Plasmid-harboring cells ([1]; NiCl2 2.2 mM): 0
Number of colonies, Plasmid-harboring cells ([1]; NiCl2 2.3 mM): 0
Number of colonies, Plasmid-harboring cells ([1]; NiCl2 >2.30 mM): 0
Number of colonies, Wild-type cells ([1]; NiCl2 1.8 mM): 2492 ± 94.27
Number of colonies, Wild-type cells ([1]; NiCl2 1.9 mM): 2065.33 ± 181.07
Number of colonies, Wild-type cells ([1]; NiCl2 2 mM): 1010.67 ± 121.71
Number of colonies, Wild-type cells ([1]; NiCl2 2.1 mM): 776 ± 73.11
Number of colonies, Wild-type cells ([1]; NiCl2 2.2 mM): 29 ± 4.40
Number of colonies, Wild-type cells ([1]; NiCl2 2.3 mM): 0.67 ± 0.19
Number of colonies, Wild-type cells ([1]; NiCl2 >2.30 mM): 0
NiCl2 concentration up to which wild-type E. coli cells were capable of growing ([1]; LB agar plates, 37 °C, 24 h): 2.2 mM
Growth of tetA-harboring E. coli cells on plates containing 2.0 mM NiCl2 ([1]; LB agar plates, 37 °C, 24 h, 2.0 mM NiCl2): not able to grow
Number of colonies, Wild-type cells ([2]; NiCl2 0.5 mM): 180 ± 6.42
Number of colonies, Wild-type cells ([2]; NiCl2 1 mM): 128 ± 10.50
Number of colonies, Wild-type cells ([2]; NiCl2 2 mM): 114 ± 4.04
Number of colonies, Wild-type cells ([2]; NiCl2 4 mM): 87 ± 16.09
Number of colonies, Wild-type cells ([2]; NiCl2 8 mM): 21 ± 5.03
Number of colonies, Wild-type cells ([2]; NiCl2 >8.0 mM): 0
Number of colonies, tetA-harboring cells ([2]; NiCl2 0.5 mM): 119 ± 6.42
Number of colonies, tetA-harboring cells ([2]; NiCl2 1 mM): 125 ± 4.40
Number of colonies, tetA-harboring cells ([2]; NiCl2 2 mM): 3 ± 2.08
Number of colonies, tetA-harboring cells ([2]; NiCl2 4 mM): 0
Number of colonies, tetA-harboring cells ([2]; NiCl2 8 mM): 0
Number of colonies, tetA-harboring cells ([2]; NiCl2 >8.0 mM): 0

CTP (GGRRARRRRRR; also: TAMRA label, site not given here) [CPP 96, TAMRA-labeled CPP of the 98-CPP library]
Max OD (%) (Figure 3f) ([3]; replicate 1): 80.7143%
Max OD (%) (Figure 3f) ([3]; replicate 2): 88.7755%
Max OD (%) (Figure 3f) ([3]; replicate 3): 86.7347%
Growth rate (%) [3]: 85.4082%
Anti-bacterial activity [3, 6]: Safe
Max OD (%) [3]: 85.4%
Penetration efficiency (TAMRA fluorescence in E. coli) [4]: 3688.0 A.U.

Penetratin (RQIKIWFPNRRMKWKK; also: TAMRA label, site not given here) [CPP 17, TAMRA-labeled CPP of the 98-CPP library, one of five used to evaluate delivery methods]
Cell penetration efficiency (TAMRA fluorescence), Chemical (CaCl2) method - Tris buffer ([5]; replicate 1): 29.4497 A.U.
Cell penetration efficiency (TAMRA fluorescence), Chemical (CaCl2) method - Tris buffer ([5]; replicate 2): 24.3955 A.U.
Cell penetration efficiency (TAMRA fluorescence), Chemical (CaCl2) method - Tris buffer ([5]; replicate 3): 28.6202 A.U.
Cell penetration efficiency (TAMRA fluorescence), Chemical (CaCl2) method - DW ([5]; replicate 1): 134.244 A.U.
Cell penetration efficiency (TAMRA fluorescence), Chemical (CaCl2) method - DW ([5]; replicate 2): 173.67 A.U.
Cell penetration efficiency (TAMRA fluorescence), Chemical (CaCl2) method - DW ([5]; replicate 3): 170.238 A.U.
Penetration efficiency (TAMRA FI) ([5]; TAMRA fluorescence intensity in E. coli, library screen of 98 CPPs): 647.56
Anti-bacterial activity [3]: Safe
Growth rate (%) [3]: 56.8825%
Cell penetration efficiency (TAMRA fluorescence), Electrooration - Tris buffer ([4]; replicate 1): 794.592 A.U.
Cell penetration efficiency (TAMRA fluorescence), Electrooration - Tris buffer ([4]; replicate 2): 585.819 A.U.
Cell penetration efficiency (TAMRA fluorescence), Electrooration - Tris buffer ([4]; replicate 3): 1028.54 A.U.
Cell penetration efficiency (TAMRA fluorescence), Electrooration - Tris buffer ([4]; replicate 4): 181.291 A.U.
Cell penetration efficiency (TAMRA fluorescence), Electrooration - DW ([4]; replicate 1): 634.038 A.U.
Cell penetration efficiency (TAMRA fluorescence), Electrooration - DW ([4]; replicate 2): 587.6 A.U.
Cell penetration efficiency (TAMRA fluorescence), Electrooration - DW ([4]; replicate 3): 471.96 A.U.

Tat48-57 (GRKKRRQRRR; also: TAMRA label, site not given here) [CPP 70, TAMRA-labeled CPP of the 98-CPP library]
Max OD (%) (Figure 3f) ([3]; replicate 1): 81.1065%
Max OD (%) (Figure 3f) ([3]; replicate 2): 82.6722%
Max OD (%) (Figure 3f) ([3]; replicate 3): 78.7056%
Growth rate (%) [3]: 80.8281%
Anti-bacterial activity [3, 6]: Safe
Max OD (%) [3]: 80.8%
Penetration efficiency (TAMRA fluorescence in E. coli) [4]: 4043.3 A.U.
